Values quoted from earlier work, collected in patent US20060078615A1, “Bilayer tablet of telmisartan and simvastatin” (Boehringer Ingelheim International GmbH, priority 2004, published 2006).

Conditions: physiological pH range of the gastrointestinal tract, pH 1 to 7; free acid form

SMILES: CCCc1nc2c(C)cc(-c3nc4ccccc4n3C)cc2n1Cc1ccc(-c2ccccc2C(=O)O)cc1 [Telmisartan, 4′-[2-n-propyl-4-methyl-6-(1-methylbenzimidazol-2-yl)benzimidazol-1-ylmethyl]biphenyl-2-carboxylic acid]
- solubility in aqueous systems: very poor solubility
